Literature values, collected in patent publication US6927272B2, “Electronic component-use material and electronic component using it” (Matsushita Electric Industrial Co., Ltd., priority 2001, dated 2005).

conditions: cis-form; room temperature (20-30° C.)

Row | Compound | Vapor Pressure
1 | CC1(C)C(C=C(Cl)Cl)C1C(=O)OC(C#N)c1ccc(F)c(Oc2ccccc2)c1 (stereo not drawn) [β-cyfluthrin] | cis-form 10/ nPa

same assay, conditions: room temperature (20-30° C.)

Row | Compound | Vapor Pressure
2 | Cc1c(COC(=O)[C@@H]2[C@H](/C=C(\Cl)C(F)(F)F)C2(C)C)cccc1-c1ccccc1 (racemic) [bifenthrin] | 24,000 nPa
3 | Cc1c(F)c(F)c(COC(=O)[C@@H]2[C@H](/C=C(\Cl)C(F)(F)F)C2(C)C)c(F)c1F (racemic) [tefluthrin] | 80,000,000 nPa
4 | CC1(C)[C@H](C(=O)O[C@H](C#N)c2cccc(Oc3ccccc3)c2)[C@@H]1/C=C\C(=O)OC(C(F)(F)F)C(F)(F)F [acrinathrin] | 390 nPa
5 | CC1(C)C(C=C(Cl)Cl)C1C(=O)OC(C#N)c1cccc(Oc2ccccc2)c1 (stereo not drawn) [cypermethrin] | 230 nPa
6 | CC(C)=CC1C(C(=O)OC(C#N)c2cccc(Oc3ccccc3)c2)C1(C)C (stereo not drawn) [cyphenothrin] | 400,000 nPa
7 | CC(C)=CC1C(C(=O)OCN2C(=O)C3=C(CCCC3)C2=O)C1(C)C (stereo not drawn) [d-tetramethrin] | 320,000 nPa
8 | CC1(C)[C@H](C(=O)O[C@H](C#N)c2cccc(Oc3ccccc3)c2)[C@@H]1C=C(Br)Br [deltamethrin] | 2,000 nPa
9 | CC(C)C(C(=O)OC(C#N)c1cccc(Oc2ccccc2)c1)c1ccc(Cl)cc1 (stereo not drawn) [fenvalerate] | 37,000 nPa
10 | CC(C)[C@H](C(=O)OC(C#N)c1cccc(Oc2ccccc2)c1)c1ccc(OC(F)F)cc1 (stereo partly drawn) [flucythrinate] | 1,200 nPa
11 | CC1(C)C(C=C(Cl)Cl)C1C(=O)OCc1cccc(Oc2ccccc2)c1 (stereo not drawn) [permethrin] | 45,000 nPa
12 | CC(C)=CC1C(C(=O)OCc2cccc(Oc3ccccc3)c2)C1(C)C (stereo not drawn) [phenothrin] | 160,000 nPa
13 | CC(C)=CC1C(C(=O)OCc2coc(Cc3ccccc3)c2)C1(C)C (stereo not drawn) [resmethrin] | 1,500 nPa
14 | CCOc1ccc([Si](C)(C)CCCc2ccc(F)c(Oc3ccccc3)c2)cc1 [silafluofen] | 731,500 nPa
15 | CC1(C)[C@H](C(=O)O[C@H](C#N)c2cccc(Oc3ccccc3)c2)[C@@H]1C(Br)C(Br)(Br)Br (stereo partly drawn) [tralomethrin] | 0.017 nPa
16 | CC1(C)C(/C=C(\Cl)C(F)(F)F)C1C(=O)OC(C#N)c1cccc(Oc2ccccc2)c1 (stereo not drawn) [λ-cyhalothrin] | 200 nPa
17 | CC(C)[C@@H](Nc1ccc(C(F)(F)F)cc1Cl)C(=O)OC(C#N)c1cccc(Oc2ccccc2)c1 (stereo partly drawn) [τ-fulvalinate] | 13,000 nPa

same assay, conditions: trans-form; room temperature (20-30° C.)

Row | Compound | Vapor Pressure
18 | CC1(C)C(C=C(Cl)Cl)C1C(=O)OC(C#N)c1ccc(F)c(Oc2ccccc2)c1 (stereo not drawn) [β-cyfluthrin] | 90 nPa
